Results reported in article PMC7395068, “The evolution of strategies to minimise the risk of human drug-induced liver injury (DILI) in drug discovery and development” (Archives of Toxicology, 2020).
Read-outs that look alike come from different tables or passages of the source.

Key:
[1] = human, in vivo; cited from earlier work
[2] = tested on: THLE-Null and THLE-3A4 cells; conditions: cited from earlier work
[3] = tested on: primary human hepatocytes, NIH3T3 fibroblasts, BSEP, CYP3A4; conditions: cited from earlier work
HepaRG spheroids [4] = tested on: HepaRG spheroids
[5] = tested on: HepG2 C3A spheroid, BSEP, Glu/Gal in HepG2 cells, bioactivation; conditions: cited from earlier work
HepG2 cells = conditions: cited from earlier work
hLiMTs [6] = tested on: hLiMTs
[7] = tested on: THLE or HepG2 cells, isolated mitochondria, BSEP; conditions: cited from earlier work
Upcyte human hepatocytes = conditions: cited from earlier work
[8] = Plasma free fraction (fu) and unbound Cmax (Cmax,u); assay type: in vitro ADME, human; conditions: human
Experimental: The prediction of DILI severity was evaluated further using the 3D combined HCI assays using plasma-free fraction. The majority of fu values were obtained from literature, when unavailable in-house prediction was utilised. Unbound plasma Cmax concentrations (Cmax,u) were derived by multiplying total plasma Cmax with the corresponding free fraction (fu) for each compound.

HepaRG spheroids [9] = assay: Combined HCI (HCS) and cellular ATP 3D assay in HepaRG spheroids; conditions: Homo sapiens, HepaRG
[10] = tested on: HepG2 cells, primary human hepatocytes; conditions: cited from earlier work
human hepatocytes = conditions: cited from earlier work
rBsep = conditions: cited from earlier work
PHH = conditions: cited from earlier work
PHH spheroids = conditions: cited from earlier work
[11] = in vivo; cited from earlier work
hLiMTs [12] = assay: Combined HCI (HCS) and cellular ATP 3D assay in hLiMTs; conditions: Homo sapiens
[13] = in vivo; cited from earlier work; remark: listed apart in the source

Nc1c2c(nc3ccccc13)CCCC2 [tacrine, reference compound]
Cmax [1]: 0.08 µM
THLE-Null [2]: -VE
Cellular toxicity (3T3 cells) [3]: -VE
Combined Assay [3]: +VE
DILI in vitro assay prediction, Schadt (2015) [3]: +VE
GSH adduct HML [3]: +VE
Hepatocyte cellular toxicity [3]: -VE
MitoTox 3T3 [3]: -VE
TDI CYP3A4 [3]: -VE
hBSEP inhibition [3]: -VE
HepaRG <10 uM All (HepaRG spheroids [4]): -ve
HepaRG <100x Avg Cmaxu ATP (HepaRG spheroids [4]; human): -ve
HepaRG <100x Avg Cmaxu All (HepaRG spheroids [4]; human): -ve
HepaRG <100x Avg Cmaxu HCS (HepaRG spheroids [4]; human): -ve
HepaRG Cmax max All (HepaRG spheroids [4]; human): -ve
HepaRG Cmax min All (HepaRG spheroids [4]; human): -ve
Bayesian Machine Learning [5]: +VE
Bayesian Machine Learning DILI prediction, Williams (2019) [5]: +VE
Structural based (HCI) (HepG2 cells): -VE
hLiMTs <10 uM All (hLiMTs [6]): -ve
hLiMTs <100x Avg Cmaxu ATP (hLiMTs [6]; human): -ve
hLiMTs <100x Avg Cmaxu All (hLiMTs [6]; human): -ve
hLiMTs <100x Avg Cmaxu HCS (hLiMTs [6]; human): -ve
hLiMTs Cmax max All (hLiMTs [6]; human): -ve
hLiMTs Cmax min All (hLiMTs [6]; human): -ve
Ro2 Hybrid HRM Score [7]: +VE
Rule of Two hybrid HRM Score ≥8, Aleo (2019) [7]: -VE
Upcytes multi donor assay 14day data (Upcyte human hepatocytes): +VE
Human plasma Cmax,u [8]: 0.036 µM
AC50 (HepaRG spheroids [9]; read-out: ATP endpoint AC50): 51.8 µM
minimal effective concentration (HepaRG spheroids [9]; read-out: ATP endpoint MEC): 45.3 µM
AC50 (HepaRG spheroids [9]; read-out: HCS endpoint AC50): 65.6 µM
minimal effective concentration (HepaRG spheroids [9]; read-out: HCS endpoint MEC): 48.7 µM
Cluster 1-6 +VE Assay [10]: +VE
DILI in vitro assay prediction, Xu (2008) (human hepatocytes): -VE
Structural based (HCI) (human hepatocytes): -VE
Inhibition of rBsep cutoff<3 (rBsep; In vitro Assay, ref Dawson 2012): -VE
Inhibition of rBsep cutoff<1& cmax u>.2 (rBsep): -VE
PHH ATP <100uM (PHH): -VE
PHH/100uM, Proctor (2017) (PHH): -VE
DILI in vitro assay prediction, Vorrink (2018) (PHH spheroids): -VE
Assigned DILI category [11]: 2
AC50 (hLiMTs [12]; read-out: ATP endpoint AC50): 41.8 µM
minimal effective concentration (hLiMTs [12]; read-out: ATP endpoint MEC): 44.7 µM
AC50 (hLiMTs [12]; read-out: HCS endpoint AC50): 52.4 µM
minimal effective concentration (hLiMTs [12]; read-out: HCS endpoint MEC): 38.5 µM
DILI Score (FDA) (1-8) [13]: 7
